# Columns and labels:
# wild-type EGFR = wild-type EGFR (Homo sapiens (Human), UniProt P00533); assay: In vitro EGFR kinase activity assay (Z'-Lyte); type: biochemical; settings: EGFR WT; read-out: Inhibitory activity on EGFR kinase (IC50, nM) WT;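 also: Ten-point dose series from 5.1×10^−11 to 1.0×10^−6 mol/L, kinase reaction 1.5 h at room temperature, then 1 h development cleaving unphosphorylated peptide, phosphopeptide as 100% phosphorylation control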
# EGFR-L858R = EGFR-L858R (Homo sapiens (Human), UniProt P00533, L858R); assay: In vitro EGFR kinase activity assay (Z'-Lyte); type: biochemical; settings: read-out: Inhibitory activity on EGFR kinase (IC50, nM) L858R;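 also: Cell-free kinase reaction with peptide substrate and ATP, 1.5 h at room temperature, then development step cleaving non-phosphorylated peptide, 10-point dilution series 0.051–1000 nM, phosphopeptide as 100% phosphorylation control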
# Protocol: (§8) Inhibitory effects in vitro of the compounds provided in the present invention on EGFR kinase activity was tested as follows:
# (§9) 10 concentration gradients, from 5.1×10^−11 mol/L to 1.0×10^−6 mol/L, were set for all of the compounds to be tested.
# (§10) 10 μL of kinase reaction system comprised 2.5 μL of compound solution, 5 μL of Kinase/peptide mixture, and 2.5 μL of ATP solution. 5 μL of phosphopeptide solution was used in place of kinase/peptide mixture as 100% phosphorylation control. […] After thoroughly mixing the solution within the plate, the plate was incubated at room temperature for 1.5 hours. 5 μL of DevelopmentSolution was added into each well, and then the plate was incubated at room temperature for another 1 hour, and non-phosphorylated peptide was cleaved within this period. Finally, the reaction was quenched by adding 5 μL of Stop Reagent. The Plate was measured with EnVision Multilabel Reader (Perkin Elmer). Experimental data were calculated by using GraphPad Prism version 4.0. Each experiment was repeated more than three times.
# EGFR-L858R/T790M = EGFR-L858R/T790M (Homo sapiens (Human), UniProt P00533, L858R/T790M); assay: In vitro EGFR kinase activity assay (Z'-Lyte); type: biochemical; settings: read-out: Inhibitory activity on EGFR kinase (IC50, nM) T790M/L858R;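 also: Cell-free kinase reaction with peptide substrate and ATP, 1.5 h at room temperature, development cleaving unphosphorylated peptide, 10-point dilution 0.051–1000 nM, phosphopeptide as 100% phosphorylation control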
# Protocol: as §8, §9, §10
# [1] = test system: H1975 (non-small cell lung cancer cells, EGFR L858R/T790M); assay: Cell proliferation and growth inhibition analysis; type: cell-based; settings: Homo sapiens, NCI-H1975, 72 hours, read-out: Inhibitory activity on cell proliferation (IC50, μM) H1975
# Protocol: (§1) Cell proliferation was evaluated by MTS assay. Cells were exposed to the process conditions for 72 hours, and the number of cells for each cell line used in the experiment was adjusted according to the absorbance value (absorbance value at 490 nm was 1.3-2.2). 6 concentration gradients (0.1 nM-10 μM) were set for the compounds to be tested, with six parallel controls for each concentration.
# (§2) H1975, HCC827, A549, BT474, MCF-7, SK-BR-3 cells were cultured in the corresponding medium. Upon recovery, the cells were passaged at least two times and then used in experiments. Cells in Log phase were trypsinized and resuspended in the medium. H1975 (1000 cells per well), BT474 (1500 cells per well), MCF-7 (1500 cells per well), HCC827 (2000 cells per well), SK-BR-3 (2000 cells per well), A549 (2000 cells per well) were seeded into 96-well plates, the volume was 100 μL, and 6 rows and 7 columns were set. The plate was placed in an incubator at 37° C. of 5% carbon dioxide overnight. Compounds were dissolved in DMSO to obtain the concentration of […], and then gradually diluted to obtain the concentration of compound as […], 0.1 μM, 0.01 μM, 0.001 μM, 0.0001 μM. 2 μL of compound solution was added into 998 μL of medium, and the resulting mixture was thoroughly mixed. 100 μL of mixture was added into 96-well plate. […] After the cells were cultured for 68 hours, 20 μL of MTT (5 mg/mL) was added. After 4 hours, the supernatant was discarded and 150 μL of DMSO was added. The resulting system was shaken for 10 minutes, and the plate was read with Synergy HT (Bio TeK) (OD490). The data was calculated by GraphPad Prism version 4.0, and IC50 was obtained by non-linear regression model using dose-response curve.
# [2] = test system: HCC827 (non-small cell lung cancer cells, EGFR del E746-A750); assay: Cell proliferation and growth inhibition analysis; type: cell-based; settings: Homo sapiens, 72 hours, read-out: Inhibitory activity on cell proliferation (IC50, μM) HCC827
# Protocol: as §1, §2
# [3] = test system: A549 (non-small cell lung cancer cells, EGFR wild-type); assay: Cell proliferation and growth inhibition analysis; type: cell-based; settings: Homo sapiens, 72 hours, read-out: Inhibitory activity on cell proliferation (IC50, μM) A549
# Protocol: as §1, with “Cell proliferation and growth inhibition analysis: H1975 (non-small cell lung cancer cells, EGFR^L858/T790M), HCC827 (non-small cell lung cancer cells, EGFR^del E746-A750), A549 (non-small cell lung cancer cells, EGFR wild-type), BT474 (breast cancer cells, Her2 overexpression), SK-BR-3 (breast cancer cells, Her2 overexpression), MCF-7 (breast cancer cells, […]) cells were obtained from ATCC. Cell proliferation” for “Cell proliferation”
# [4] = test system: BT474 (breast cancer cells, Her2 overexpression); assay: Cell proliferation and growth inhibition analysis; type: cell-based; settings: Homo sapiens, BT-474, 72 hours, read-out: Inhibitory activity on cell proliferation (IC50, μM) BT474
# Protocol: as §1, with “Cell proliferation and growth inhibition analysis: H1975 (non-small cell lung cancer cells, EGFR^L858/T790M), HCC827 (non-small cell lung cancer cells, EGFR^del E746-A750), A549 (non-small cell lung cancer cells, EGFR wild-type), BT474 (breast cancer cells, Her2 overexpression), SK-BR-3 (breast cancer cells, Her2 overexpression), MCF-7 (breast cancer cells, […]) cells were obtained from ATCC. Cell proliferation” for “Cell proliferation”
# MCF-7 = assay: Cell proliferation and growth inhibition analysis; type: cell-based; settings: Homo sapiens, MCF7; MCF-7 cells, 72 hours; read-out: Inhibitory activity on cell proliferation (IC50, μM) MCF-7
# Protocol: as §1, with “Cell proliferation and growth inhibition analysis: H1975 (non-small cell lung cancer cells, EGFR^L858/T790M), HCC827 (non-small cell lung cancer cells, EGFR^del E746-A750), A549 (non-small cell lung cancer cells, EGFR wild-type), BT474 (breast cancer cells, Her2 overexpression), SK-BR-3 (breast cancer cells, Her2 overexpression), MCF-7 (breast cancer cells, […]) cells were obtained from ATCC. Cell proliferation” for “Cell proliferation”
# [5] = test system: SK-BR-3 (breast cancer cells, Her2 overexpression); assay: Cell proliferation and growth inhibition analysis; type: cell-based; settings: Homo sapiens; SK-BR-3 cells, 72 hours; read-out: Inhibitory activity on cell proliferation (IC50, μM) SK-BR-3
# Protocol: as §1, with “Cell proliferation and growth inhibition analysis: H1975 (non-small cell lung cancer cells, EGFR^L858/T790M), HCC827 (non-small cell lung cancer cells, EGFR^del E746-A750), A549 (non-small cell lung cancer cells, EGFR wild-type), BT474 (breast cancer cells, Her2 overexpression), SK-BR-3 (breast cancer cells, Her2 overexpression), MCF-7 (breast cancer cells, […]) cells were obtained from ATCC. Cell proliferation” for “Cell proliferation”
# BLK = BLK (Homo sapiens (Human), UniProt P51451); assay: BLK kinase activity assay (Caliper); type: biochemical; settings: read-out: Inhibitory activity on kinase (IC50, nM) BLK
# Protocol: (§3) Preparation of 1× kinase matrix buffer and stop buffer.
# (§4) Preparation of compound solution. The compound was dissolved in 100% DMSO to a concentration, which was 50 times of the final highest inhibiting-concentration. 100 μL of the compound solution as said above was transferred into wells of 96-well plate. The above compound solution was sequentially diluted to the final desired concentration. In two blank wells of same 96-well plate, 100 μL of 100% DMSO was added as no-compound and no-kinase control, and this plate was used as the original plate.
# (§5) Preparation of intermediate plate. 10 μL of compound solution was transferred from the original plate to another 96-well plate as the intermediate plate; 90 μL of 1× kinase buffer was added into each well of the intermediate plate, and the intermediate plate was shaken for 10 min.
# (§6) Preparation of assay plate. 5 μL of solution from each well of intermediate plate was added into a 384-well plate, and repeated controls were set.
# (§7) Kinase reaction. 2.5× kinase solution and 2.5× peptide solution were prepared. 2.5× kinase solution was transferred into assay plate. Assay plate comprised 5 μL of the compound solution in 10% DMSO. 10 μL of 2.5× kinase solution was added in each well of 384-well assay plate. […] 2.5× peptide solution was added into each well. After incubated at 28° C. for an appropriate time, 25 μL of stop buffer was added to quench the reaction. Experimental data were collected in Caliper. Curve was fitted.
# FLT3 = FLT3 (Homo sapiens (Human), UniProt P36888); assay: FLT3 kinase activity assay (Caliper); type: biochemical; settings: read-out: Inhibitory activity on kinase (IC50, nM) FLT3
# Protocol: as §3, §4, §5, §6, §7
# EGFR-T790M = EGFR-T790M (Homo sapiens (Human), UniProt P00533, T790M); assay: In vitro EGFR kinase activity assay (Z'-Lyte); settings: read-out: Inhibitory activity on EGFR kinase (IC50, nM) T790M
# EGFR-T790M, sequence (P00533 25-1210 T790M): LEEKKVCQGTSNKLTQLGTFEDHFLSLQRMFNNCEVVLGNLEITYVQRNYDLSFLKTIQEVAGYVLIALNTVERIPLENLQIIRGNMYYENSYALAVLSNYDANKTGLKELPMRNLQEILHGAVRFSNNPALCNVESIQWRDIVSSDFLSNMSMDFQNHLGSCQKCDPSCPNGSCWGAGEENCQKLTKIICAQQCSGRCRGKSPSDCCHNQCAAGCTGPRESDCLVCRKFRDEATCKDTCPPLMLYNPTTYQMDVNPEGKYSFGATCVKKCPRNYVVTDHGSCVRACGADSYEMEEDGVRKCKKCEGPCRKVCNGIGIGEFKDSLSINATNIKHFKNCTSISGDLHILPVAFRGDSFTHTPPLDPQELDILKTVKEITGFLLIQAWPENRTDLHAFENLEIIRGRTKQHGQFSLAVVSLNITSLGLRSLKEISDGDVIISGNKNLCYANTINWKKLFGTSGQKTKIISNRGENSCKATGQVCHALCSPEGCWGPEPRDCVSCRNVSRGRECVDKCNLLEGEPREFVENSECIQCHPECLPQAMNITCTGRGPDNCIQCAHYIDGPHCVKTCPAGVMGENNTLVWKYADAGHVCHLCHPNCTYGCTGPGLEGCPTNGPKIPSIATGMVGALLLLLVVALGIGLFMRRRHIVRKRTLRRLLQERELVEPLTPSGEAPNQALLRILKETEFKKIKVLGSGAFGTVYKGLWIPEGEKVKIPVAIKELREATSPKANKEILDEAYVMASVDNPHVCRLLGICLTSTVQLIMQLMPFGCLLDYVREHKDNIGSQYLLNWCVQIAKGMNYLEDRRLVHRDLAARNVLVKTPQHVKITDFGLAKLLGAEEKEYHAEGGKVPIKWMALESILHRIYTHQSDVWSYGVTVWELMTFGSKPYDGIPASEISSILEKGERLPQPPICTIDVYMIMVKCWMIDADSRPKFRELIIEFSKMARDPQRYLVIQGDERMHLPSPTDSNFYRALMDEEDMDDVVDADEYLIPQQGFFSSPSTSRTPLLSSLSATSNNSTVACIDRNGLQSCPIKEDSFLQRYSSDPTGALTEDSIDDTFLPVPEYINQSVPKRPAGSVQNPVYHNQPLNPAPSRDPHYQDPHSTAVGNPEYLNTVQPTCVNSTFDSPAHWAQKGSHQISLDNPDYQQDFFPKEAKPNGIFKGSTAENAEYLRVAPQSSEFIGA
# Protocol: as §8, §9, §10
# BLK, sequence (P51451 whole entry): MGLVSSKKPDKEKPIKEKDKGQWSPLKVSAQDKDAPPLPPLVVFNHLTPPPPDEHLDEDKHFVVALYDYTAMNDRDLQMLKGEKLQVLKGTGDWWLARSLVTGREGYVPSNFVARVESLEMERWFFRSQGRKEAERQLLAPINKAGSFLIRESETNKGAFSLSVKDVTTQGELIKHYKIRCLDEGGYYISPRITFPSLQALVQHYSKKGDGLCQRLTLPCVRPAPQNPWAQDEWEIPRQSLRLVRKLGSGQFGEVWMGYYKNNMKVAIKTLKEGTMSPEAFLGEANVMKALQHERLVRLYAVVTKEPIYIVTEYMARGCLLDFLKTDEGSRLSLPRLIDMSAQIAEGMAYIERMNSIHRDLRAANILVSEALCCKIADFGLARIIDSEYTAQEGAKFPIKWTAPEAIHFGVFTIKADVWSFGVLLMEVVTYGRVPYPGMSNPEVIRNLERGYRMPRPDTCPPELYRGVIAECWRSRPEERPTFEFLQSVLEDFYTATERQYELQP
# FLT3, sequence (P36888 27-993): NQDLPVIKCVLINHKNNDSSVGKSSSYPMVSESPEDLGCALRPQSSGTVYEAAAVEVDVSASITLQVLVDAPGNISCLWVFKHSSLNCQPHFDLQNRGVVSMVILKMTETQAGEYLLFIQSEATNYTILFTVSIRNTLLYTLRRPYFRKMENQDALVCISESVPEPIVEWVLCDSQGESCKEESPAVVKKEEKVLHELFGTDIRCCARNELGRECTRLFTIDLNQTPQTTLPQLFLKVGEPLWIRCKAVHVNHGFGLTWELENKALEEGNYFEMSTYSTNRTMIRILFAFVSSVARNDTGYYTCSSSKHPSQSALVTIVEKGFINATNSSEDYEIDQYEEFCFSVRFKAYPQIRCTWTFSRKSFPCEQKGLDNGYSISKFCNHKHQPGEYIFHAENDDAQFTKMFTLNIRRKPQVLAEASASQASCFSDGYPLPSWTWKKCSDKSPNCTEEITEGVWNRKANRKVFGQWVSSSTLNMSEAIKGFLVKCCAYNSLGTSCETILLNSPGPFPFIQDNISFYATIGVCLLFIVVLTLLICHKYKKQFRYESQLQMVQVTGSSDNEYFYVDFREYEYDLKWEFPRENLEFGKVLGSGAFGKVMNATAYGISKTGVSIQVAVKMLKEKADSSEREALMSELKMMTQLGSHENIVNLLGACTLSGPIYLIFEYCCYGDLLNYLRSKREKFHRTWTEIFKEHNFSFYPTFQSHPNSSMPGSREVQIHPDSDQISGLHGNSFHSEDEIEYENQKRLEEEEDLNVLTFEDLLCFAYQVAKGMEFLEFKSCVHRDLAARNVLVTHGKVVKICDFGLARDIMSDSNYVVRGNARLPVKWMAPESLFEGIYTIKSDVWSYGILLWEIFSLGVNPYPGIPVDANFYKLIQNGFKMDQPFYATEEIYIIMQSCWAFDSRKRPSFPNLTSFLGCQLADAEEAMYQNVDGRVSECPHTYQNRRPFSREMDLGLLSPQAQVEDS
# EGFR-L858R, sequence (P00533 25-1210 L858R): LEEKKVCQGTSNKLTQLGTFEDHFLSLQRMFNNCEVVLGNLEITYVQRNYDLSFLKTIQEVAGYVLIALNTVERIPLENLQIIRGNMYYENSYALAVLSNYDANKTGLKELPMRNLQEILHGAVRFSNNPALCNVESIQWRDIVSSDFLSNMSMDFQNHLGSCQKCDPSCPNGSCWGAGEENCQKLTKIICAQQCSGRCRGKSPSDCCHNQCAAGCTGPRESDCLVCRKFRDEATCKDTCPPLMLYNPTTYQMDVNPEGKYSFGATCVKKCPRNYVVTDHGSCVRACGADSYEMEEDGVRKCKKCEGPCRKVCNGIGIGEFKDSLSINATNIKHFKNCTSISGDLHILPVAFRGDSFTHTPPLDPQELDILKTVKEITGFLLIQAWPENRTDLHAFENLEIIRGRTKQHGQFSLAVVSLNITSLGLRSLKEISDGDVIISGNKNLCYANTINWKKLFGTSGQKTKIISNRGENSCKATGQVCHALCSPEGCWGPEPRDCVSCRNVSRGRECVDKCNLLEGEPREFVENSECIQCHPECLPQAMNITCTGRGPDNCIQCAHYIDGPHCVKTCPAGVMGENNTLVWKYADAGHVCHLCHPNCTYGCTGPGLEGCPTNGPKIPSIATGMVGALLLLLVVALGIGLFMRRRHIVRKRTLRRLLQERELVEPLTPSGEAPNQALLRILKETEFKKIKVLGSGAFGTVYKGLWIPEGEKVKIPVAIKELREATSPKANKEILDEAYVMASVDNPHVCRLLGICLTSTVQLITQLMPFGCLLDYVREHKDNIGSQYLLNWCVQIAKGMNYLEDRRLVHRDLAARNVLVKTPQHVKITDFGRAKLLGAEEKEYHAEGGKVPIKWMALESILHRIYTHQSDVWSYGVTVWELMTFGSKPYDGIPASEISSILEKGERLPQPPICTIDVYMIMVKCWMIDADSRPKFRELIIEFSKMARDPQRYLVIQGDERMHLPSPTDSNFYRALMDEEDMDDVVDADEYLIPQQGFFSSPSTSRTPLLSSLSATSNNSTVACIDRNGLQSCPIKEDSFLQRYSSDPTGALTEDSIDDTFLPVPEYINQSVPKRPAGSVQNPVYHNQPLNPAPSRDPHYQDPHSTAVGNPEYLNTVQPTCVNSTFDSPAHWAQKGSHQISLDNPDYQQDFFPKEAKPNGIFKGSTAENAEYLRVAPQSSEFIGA
# wild-type EGFR, sequence (P00533 25-1210): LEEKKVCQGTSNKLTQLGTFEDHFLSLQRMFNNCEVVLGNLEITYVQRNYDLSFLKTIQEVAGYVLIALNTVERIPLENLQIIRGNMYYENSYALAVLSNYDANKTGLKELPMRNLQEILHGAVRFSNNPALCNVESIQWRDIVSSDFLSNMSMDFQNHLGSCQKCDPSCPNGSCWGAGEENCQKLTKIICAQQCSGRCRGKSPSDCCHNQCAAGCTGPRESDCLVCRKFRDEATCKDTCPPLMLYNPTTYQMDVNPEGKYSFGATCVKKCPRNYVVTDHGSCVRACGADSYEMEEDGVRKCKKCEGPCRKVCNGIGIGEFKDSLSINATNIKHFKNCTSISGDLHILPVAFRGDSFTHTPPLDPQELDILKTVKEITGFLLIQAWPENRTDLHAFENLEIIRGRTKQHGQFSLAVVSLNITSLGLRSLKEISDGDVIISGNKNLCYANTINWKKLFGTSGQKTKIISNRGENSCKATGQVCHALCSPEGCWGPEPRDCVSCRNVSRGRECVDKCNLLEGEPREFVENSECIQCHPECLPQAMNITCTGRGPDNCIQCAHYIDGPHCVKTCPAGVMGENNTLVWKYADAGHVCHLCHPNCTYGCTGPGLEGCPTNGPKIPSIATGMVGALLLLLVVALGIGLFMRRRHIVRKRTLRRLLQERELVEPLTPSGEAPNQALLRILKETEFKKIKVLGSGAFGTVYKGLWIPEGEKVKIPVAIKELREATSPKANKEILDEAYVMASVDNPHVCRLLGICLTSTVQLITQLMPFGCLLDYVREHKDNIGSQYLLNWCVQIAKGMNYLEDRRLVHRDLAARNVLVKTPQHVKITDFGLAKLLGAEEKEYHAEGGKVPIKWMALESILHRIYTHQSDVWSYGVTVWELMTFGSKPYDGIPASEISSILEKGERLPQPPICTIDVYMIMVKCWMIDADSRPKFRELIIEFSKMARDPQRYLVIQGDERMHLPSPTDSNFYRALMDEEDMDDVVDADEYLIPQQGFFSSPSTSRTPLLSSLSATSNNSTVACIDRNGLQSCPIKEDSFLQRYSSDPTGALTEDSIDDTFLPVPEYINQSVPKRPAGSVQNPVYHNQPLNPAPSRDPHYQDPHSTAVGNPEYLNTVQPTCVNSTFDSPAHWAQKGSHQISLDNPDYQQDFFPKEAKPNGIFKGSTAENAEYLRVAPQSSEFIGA
SMILES,IC50 (wild-type EGFR),IC50 (EGFR-L858R),IC50 (EGFR-L858R/T790M),IC50 [1],IC50 [2],IC50 [3],IC50 [4],IC50 (MCF-7),IC50 [5],IC50 (BLK),IC50 (FLT3),IC50 (EGFR-T790M)
COc1ccc(Nc2ncc3ncc(=O)n(-c4cccc(N)c4)c3n2)cc1 [Compound 005],> 10000 nM,87200 nM,> 10000 nM,> 10 µM,> 10 µM,> 10 µM,> 10 µM,> 10 µM,> 10 µM,> 10000 nM,30 nM,> 10000 nM
"COc1ccc(Nc2ncc3ncc(=O)n(-c4cccc(NC(=O)/C=C/CN(C)C)c4)c3n2)cc1 [Compound 010, 4-(dimethylamino)-N-(3-(2-(4-methoxyphenylamino)-7-oxo-8(7H)-pteridin-yl)phenyl)-2-buteneamide]",8090 nM,6080 nM,2020 nM,> 10 µM,4.16 µM,> 10 µM,3.43 µM,3.6 µM,7.17 µM,106 nM,4390 nM,2250 nM
"C=CC(=O)Nc1ccc(-n2c(=O)cnc3cnc(Nc4ccc(OC)cc4)nc32)cc1 [Compound 002, N-(4-(2-(4-methoxyphenylamino)-7-oxo-8(7H)-pteridin-yl)phenyl)acrylamide]",446 nM,546 nM,606 nM,2.75 µM,1.29 µM,1.23 µM,> 10 µM,1.51 µM,1.57 µM,3040 nM,128 nM,665 nM
"COc1ccc(Nc2ncc3ncc(=O)n(-c4ccc(NC(=O)/C=C/CN(C)C)cc4)c3n2)cc1 [Compound 009, 4-(dimethylamino)-N-(4-(2-(4-methoxyphenylamino)-7-oxo-8(7H)-pteridin-yl)phenyl)-2-buteneamide]",60.7 nM,81.1 nM,39.1 nM,4.65 µM,0.91 µM,2.24 µM,0.84 µM,2.41 µM,1.15 µM,5310 nM,152 nM,10.9 nM
"CCC(=O)Nc1ccc(-n2c(=O)cnc3cnc(Nc4ccc(OC)cc4)nc32)cc1 [Compound 008, N-(4-(2-(4-methoxyphenylamino)-7-oxo-8(7H)-pteridin-yl)phenyl) propionamide]",> 10000 nM,> 10000 nM,> 10000 nM,> 10 µM,> 10 µM,6.12 µM,> 10 µM,> 10 µM,> 10 µM,> 10000 nM,115 nM,> 10000 nM
"C=CC(=O)Nc1ccc(-n2c(=O)c(C)nc3cnc(Nc4ccc(OC)cc4)nc32)cc1 [Compound 004, N-(4-(2-(4-methoxyphenylamino)-6-methyl-7-oxo-8(7H)-pteridin-yl)phenyl)acrylamide]",3180 nM,4880 nM,> 10000 nM,> 10 µM,3.33 µM,> 10 µM,> 10 µM,> 10 µM,> 10 µM,> 10000 nM,206 nM,> 10000 nM
"CCC(=O)Nc1cccc(-n2c(=O)cnc3cnc(Nc4ccc(OC)cc4)nc32)c1 [Compound 007, N-(3-(2-(4-methoxyphenylamino)-7-oxo-8(7H)-pteridin-yl)phenyl) propionamide]",> 10000 nM,> 10000 nM,> 10000 nM,> 10 µM,> 10 µM,> 10 µM,> 10 µM,> 10 µM,> 10 µM,> 10000 nM,1490 nM,> 10000 nM
"C=CC(=O)Nc1cccc(-n2c(=O)cnc3cnc(Nc4ccc(OC)cc4)nc32)c1 [Compound 006, N-(3-(2-(4-methoxyphenylamino)-7-oxo-8(7H)-pteridin-yl)phenyl) acrylamide]",10.6 nM,10.1 nM,8.4 nM,0.133 µM,0.009 µM,0.73 µM,2.24 µM,15 µM,2.35 µM,69 nM,1590 nM,19.4 nM
COc1ccc(Nc2ncc3ncc(=O)n(-c4ccc(N)cc4)c3n2)cc1 [Compound 001],> 10000 nM,> 10000 nM,> 10000 nM,> 10 µM,> 10 µM,> 10 µM,> 10 µM,> 10 µM,> 10 µM,> 10000 nM,27 nM,> 10000 nM
"C=CC(=O)Nc1ccc(-n2c(=O)cnc3cnc(Nc4ccc(N5CCN(C)CC5)cc4)nc32)cc1 [Compound 019, N-(4-(2-(4-(4-methyl-1-piperazinyl)-phenylamino)-7-oxo-8(7H)-pteridin-yl)phenyl) acrylamide]",1260 nM,6380 nM,738 nM,8.87 µM,0.676 µM,,,,,796 nM,51 nM,
"C=CC(=O)Nc1ccc(Nc2ncc3ncc(=O)n(-c4ccc(OC)cc4)c3n2)cc1 [Compound 029, N-(4-(8-(4-methoxyphenyl)-7-oxo-7,8-dihydro-pteridin-2-amino)phenyl) acrylamide]",> 10000 nM,1320 nM,> 10000 nM,0.953 µM,0.543 µM,,,,,> 10000 nM,100 nM,
